Experimental data as given in the supplement of paper PMC10307832.

Columns and labels:
Experiment in all cases: relative viability (nuclei count vs DMSO), 5 days (fraction); higher = more cells survive
[1] = compound: CCCS(=O)(=O)Nc1ccc(F)c(C(=O)c2c[nH]c3ncc(-c4ccc(Cl)cc4)cc23)c1F [Vemurafenib] + CCNC(=O)c1noc(-c2cc(C(C)C)c(O)cc2O)c1-c1ccc(CN2CCOCC2)cc1 [Luminespib] (partner 0.01 µM)
In short: (§1)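 Relative viability divides the nuclei count in treated wells by that in vehicle wells. Lung cancer cell lines were seeded in 1536-well plates, dosed by pin tool the next day, and fixed and stained after 5 days in one step with final 0.05% Triton X-100, 1% formaldehyde and 1 ug/ml Hoechst. Dosing was a single drug or a fixed anchor-drug dose plus five library-drug doses (not always all listed) in √10 steps, and values are medians of duplicate plates imaged at 4×.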

[2] = compound: CCCS(=O)(=O)Nc1ccc(F)c(C(=O)c2c[nH]c3ncc(-c4ccc(Cl)cc4)cc23)c1F [Vemurafenib] + O=C(CCCCCCC(=O)Nc1ccccc1)NO [Vorinostat] (partner 1 µM)
In short: as §1

[3] = compound: CCCS(=O)(=O)Nc1ccc(F)c(C(=O)c2c[nH]c3ncc(-c4ccc(Cl)cc4)cc23)c1F [Vemurafenib] + C[C@]1(O)C[C@@H](c2nc(-c3ccc4ccc(-c5ccccc5)nc4c3)c3c(N)nccn32)C1 [Linsitinib] (partner 1 µM)
In short: as §1

[4] = compound: Cc1nc(NC(=O)N2CCC[C@H]2C(N)=O)sc1-c1ccnc(C(C)(C)C(F)(F)F)c1 [Alpelisib] + CC1(C)CCC(c2ccc(Cl)cc2)=C(CN2CCN(c3ccc(C(=O)NS(=O)(=O)c4ccc(N[C@H](CCN5CCOCC5)CSc5ccccc5)c(S(=O)(=O)C(F)(F)F)c4)cc3)CC2)C1 [Navitoclax] (partner 0.5 µM)
In short: as §1

With UMC-11 the relative viability ([1]; first compound 0.03162 µM) was 0.916, the relative viability ([1]; first compound 0.1 µM) was 0.991 and the relative viability ([1]; first compound 0.3162 µM) was 0.984. It also gave a relative viability ([1]; first compound 1 µM) of 0.941, a relative viability ([2]; first compound 0.03162 µM) of 0.383 and a relative viability ([2]; first compound 0.1 µM) of 0.439. The relative viability ([2]; first compound 0.3162 µM) was 0.576, the relative viability ([2]; first compound 1 µM) was 0.37 and the relative viability ([3]; first compound 0.03162 µM) was 0.945. For the same cell line, the relative viability ([3]; first compound 0.1 µM) was 0.989, the relative viability ([3]; first compound 0.3162 µM) was 1.06 and the relative viability ([3]; first compound 1 µM) was 0.949. For the same cell line, the relative viability ([4]; first compound 0.04 µM) was 0.319, the relative viability ([4]; first compound 0.1265 µM) was 0.341 and the relative viability ([4]; first compound 0.4 µM) was 0.336. The relative viability ([4]; first compound 1.265 µM) was 0.325 and the relative viability ([4]; first compound 4 µM) was 0.273.
